Experimental findings from article PMC5701185, “Evidence for PII with NAGK interaction that regulates Arg synthesis in the microalga Myrmecia incisa in response to nitrogen starvation” (Scientific Reports, 2017) are described below.

Assay [1] deals with T1, MiPII with MiNAGK (Lobosphaera incisa, UniProt A0A2R4H197).
T1 construct: gene glnB; same proteins as P2; effector site on PII (209-aa precursor, 52-aa signal peptide removed, N-terminal His-tag kept, 21-kD band); read-out NAGK activity; with Acetylglutamate kinase, chloroplastic
T1 sequence (A0A2R4H197 53-209): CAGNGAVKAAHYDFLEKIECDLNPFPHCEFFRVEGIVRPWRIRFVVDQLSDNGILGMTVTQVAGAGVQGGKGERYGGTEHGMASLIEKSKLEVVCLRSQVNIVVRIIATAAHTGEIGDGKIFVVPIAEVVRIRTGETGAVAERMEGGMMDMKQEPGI
T1 sequence (A0A2R4H194 60-359 partner): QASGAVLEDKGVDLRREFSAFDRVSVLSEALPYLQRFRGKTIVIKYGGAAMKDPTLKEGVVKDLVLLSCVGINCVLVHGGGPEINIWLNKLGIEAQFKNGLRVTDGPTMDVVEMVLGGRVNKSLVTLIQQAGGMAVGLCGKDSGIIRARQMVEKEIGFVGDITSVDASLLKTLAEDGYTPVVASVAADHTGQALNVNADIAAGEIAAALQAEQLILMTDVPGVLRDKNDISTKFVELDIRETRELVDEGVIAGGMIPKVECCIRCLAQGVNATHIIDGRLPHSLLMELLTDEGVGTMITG
The experiment in a line: hydroxamate-Fe([…]+) NAGK assay, […] nm. As to conditions: read-out: % inhibition at 1 mM. The class given is biochemical.

The target in assay [2] is T1, MiPII with MiNAGK. Nature of the assay: hydroxamate-Fe([…]+) NAGK assay, […] nm. The format is biochemical. Conditions: read-out: half-maximal effective concentration.
Assay [3] addresses recombinant MiPII fused to the His-tag (pET-PII) (Myrmecia incisa). Nature of the assay: co-IP; purified recombinant MiPII (200 ug) and MiNAGK (400 ug) in 1 mL 50 mM Tris-HCl pH 7.5, 100 mM KCl, with ATP (3 mM) and Mg2+ (6 mM), with or without 2-OG (5 mM); 1 h at room temperature; precipitated with rabbit anti-MiPII polyclonal antibody and protein A Sepharose; SDS-PAGE, Coomassie staining, band intensity by ImageJ.

Assay [4] addresses recombinant MiNAGK fused to the His-tag (pET-NAGK) (Myrmecia incisa).

Sequence of recombinant MiNAGK fused to the His-tag (pET-NAGK) (Myrmecia incisa) (main, as listed by the source): as the sequence (A0A2R4H194 60-359 partner) above
Sequence of recombinant MiPII fused to the His-tag (pET-PII) (Myrmecia incisa) (main, as listed by the source): as the sequence (A0A2R4H197 53-209) above

For the compound `O=C(O)CCC(=O)C(=O)O` [2-OG], in assay [1], the inhibition at 1000 µM is ~30%. As for `NC(=O)CC[C@H](N)C(=O)O` [Gln], in assay [2], the EC50 is ~3 mM.

Turning to “recombinant MiNAGK fused to the His-tag (pET-NAGK) (enzyme)”, the intensity of the stained MiNAGK band in the precipitate with 2-OG relative to without 2-OG in assay [3] stood at 0.65 times.

As for “recombinant MiPII fused to the His-tag (pET-PII) (natural protein)”, in assay [4], the specific activity of recombinant MiNAGK with MiPII (10 ug) and Gln (10 mM), 2-OG from 0 to 4 mM; value at 1 mM 2-OG was 30%.

One may read the inhibition as the drop in the measured response relative to a control, in per cent.
